We go through 7 compounds from ChEMBL document CHEMBL1201862, “PubChem BioAssay data set” (2004).

Test in all cases: inhibition of tumour cell growth, NCI panel, 48 h
Assay [1] relates to CCRF-CEM.
Assay [2] relates to BT-549.
Assay [3] has as its system UACC-62.
Assay [4] deals with SF-539.
In assay [5] the test system is PC-3.
Assay [6] has as its system MDA-MB-231.
Assay [7] has as its system SK-MEL-2.
Assay [8] concerns SK-OV-3.
Assay [9] concerns IGROV-1.
Assay [10] relates to MOLT-4.
Assay [11] relates to U-251.
The test system of assay [12] is TK-10.
In assay [13] the test system is ACHN.
Assay [14] concerns A498.
In assay [15] the test system is HCT-116.
Assay [16] deals with NCI-H522.
Assay [17] has as its system A549.
For assay [18], the system named is SF-268.
The subject of assay [19] is SF-295.
Assay [20] has as its system COLO 205.

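Cells were grown in 96-well plates and exposed to each compound for 48 hours at five concentrations; endpoints were interpolated linearly between bracketing concentrations, or set to the highest concentration if not reached. GI50 is the concentration that inhibits growth by half.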 Activity calls are given as the source filed them. Rule as the data show it: active = GI50 up to about 1.1 µM and inactive = higher.

Regarding `COc1c2c(c3c(c1OC)c(=O)c1ccccc1n3C)OCO2`, the GI50 in assay [1], in [2], in [3], in [4], in [5] and in [6] was > 100 µM (inactive) throughout. The GI50 in assay [7], in assay [8], in assay [9], in [10], in assay [11] and in assay [12] was > 100 µM (inactive) throughout. For the same compound, the GI50 in assay [13], in assay [14], in assay [15], in assay [16], in assay [17] and in assay [18] was > 100 µM (inactive) each time. Also, the GI50 in assay [19] and in assay [20] was > 100 µM (inactive) throughout.

Consider `O=C1C(C(c2ccccc2)N2CCOCC2)=C(O)C(c2ccccc2)N1c1ccccc1` (stereo not given), for which the GI50 in assay [1], in assay [2], in [3], in assay [4], in assay [5] and in assay [6] was > 10 µM (inactive) each time. Also, the GI50 was > 10 µM (inactive) in assay [7]; > 10 µM (inactive) in assay [8]; > 10 µM (inactive) in assay [9]; 4.31 µM (inactive) in [10]; > 10 µM (inactive) in assay [11]; > 10 µM (inactive) in assay [12]. The GI50 in assay [13], in assay [14], in [15], in assay [16], in [17] and in assay [18] was > 10 µM (inactive) in each case. The GI50 in [19] and in assay [20] was > 10 µM (inactive) in each case.

For `C#CCN(Cc1ccc2nc(OC)c(OC)nc2c1)c1cc(OC)c(OC)c(OC)c1`, the GI50 was 34.9 µM (inactive) in assay [1]; 15.4 µM (inactive) in assay [2]; 18.9 µM (inactive) in assay [3]; 18.5 µM (inactive) in assay [4]; 26.1 µM (inactive) in assay [5]; 12.1 µM (inactive) in assay [6]. The GI50 in assay [7] is 23.1 µM (inactive); in assay [8], 24.5 µM (inactive); in [9] it was 19.1 µM (inactive); in assay [10] it was 16.9 µM (inactive); in [11] it was 23.9 µM (inactive); in assay [12] it was 35.5 µM (inactive). Besides, the GI50 in [13] was 21 µM (inactive); in assay [14], 35.5 µM (inactive); in [15], 16.7 µM (inactive); in [16], 9.44 µM (inactive); in assay [17], 18.4 µM (inactive); in assay [18] it was 25.1 µM (inactive). Moreover, the GI50 in assay [19] was 16.3 µM (inactive); in [20], 17.4 µM (inactive).

As to `CCOc1cc(-c2nc3ccccn3c2/N=C/c2cc([N+](=O)[O-])cc([N+](=O)[O-])c2O)ccc1O`, the GI50 in assay [1] is 45 µM (inactive); in assay [2] it was > 100 µM (inactive); in assay [3] it was > 100 µM (inactive); in [4], > 100 µM (inactive); in [5] it was > 100 µM (inactive); in [6], > 100 µM (inactive). In addition, the GI50 in assay [7], in [8], in [9], in assay [10], in assay [11] and in assay [12] was > 100 µM (inactive) throughout. Besides, the GI50 in [13], in assay [14], in assay [15], in assay [16], in assay [17] and in assay [18] was > 100 µM (inactive) throughout. The GI50 in assay [19] and in [20] was > 100 µM (inactive) each time.

In the case of `O=C1/C(=C/c2cccnc2)C(n2cccc2)c2c(Br)sc(Br)c21` (stereo not given), the GI50 in assay [1] was 1.93 µM (inactive); in [2], 9.57 µM (inactive); in assay [3] it was 2 µM (inactive); in assay [4] it was 4.26 µM (inactive); in assay [5], 2.14 µM (inactive); in assay [6] it was 1.8 µM (inactive). The GI50 in [7] is 2.26 µM (inactive); in assay [8], 15.8 µM (inactive); in assay [9] it was 1.58 µM (inactive); in [10] it was 2.19 µM (inactive); in assay [11] it was 1.7 µM (inactive); in assay [12], 1.69 µM (inactive). In addition, the GI50 was 3.28 µM (inactive) in assay [13]; 16.6 µM (inactive) in assay [14]; 2.26 µM (inactive) in [15]; 6.07 µM (inactive) in [16]; 15.6 µM (inactive) in assay [17]; 2.13 µM (inactive) in [18]. In addition, the figures for the GI50 in assay [19] and in assay [20] were 15.2 µM (inactive) and 6.64 µM (inactive), respectively.

Consider `O=C(O)C1C2C=CC(O2)C1C(=O)NCc1ccccn1` (stereo not given), for which the GI50 in assay [1], in assay [2], in assay [3], in [4], in assay [5] and in assay [6] was > 100 µM (inactive) each time. The GI50 in [7], in assay [8], in [9], in assay [10], in [11] and in assay [12] was > 100 µM (inactive) throughout. Besides, the GI50 in assay [13], in [14], in [15], in assay [16], in assay [17] and in [18] was > 100 µM (inactive) each time. Besides, the GI50 in [19] and in [20] was > 100 µM (inactive) in each case.

Regarding `CCOCC(=O)N[C@H]1CCc2cc(OC)c(OC)c(OC)c2-c2ccc(SC)c(=O)cc21`, the GI50 in assay [1] is < 0.0182 µM (active); in [2] it was < 0.01 µM (active); in assay [3], < 0.01 µM (active); in [4], < 0.01 µM (active); in assay [5] it was < 0.0327 µM (active); in assay [6], < 0.01 µM (active). The GI50 in assay [7] is < 0.01 µM (active); in assay [8], 0.0272 µM (active); in assay [9] it was < 0.01 µM (active); in assay [10], < 0.01 µM (active); in assay [11] it was < 0.01 µM (active); in [12] it was 0.406 µM (active). Besides, the GI50 in assay [13] is < 0.0117 µM (active); in [14] it was < 0.01 µM (active); in assay [15] it was < 0.01 µM (active); in assay [16] it was < 0.01 µM (active); in [17], < 0.01 µM (active); in assay [18] it was < 0.01 µM (active). In addition, the GI50 in [19] and in [20] was < 0.01 µM (active) each time.
